Calls of active or inactive are those of the source.
Columns and labels:
[1] = viability of uninfected HEp-2 cells – cell-based, HTS, cytotoxicity control for RSV inhibitor project, dose response (AID 2410); assay type: functional; conditions: human respiratory syncytial virus
Caspase-3 = target: T1, Caspase-3 (Homo sapiens, UniProt P42574); assay type: functional;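 note: Dose-response selectivity test against caspase-3 for candidate inhibitors of sentrin-specific proteases (SENPs)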
T1 sequence (P42574 whole entry): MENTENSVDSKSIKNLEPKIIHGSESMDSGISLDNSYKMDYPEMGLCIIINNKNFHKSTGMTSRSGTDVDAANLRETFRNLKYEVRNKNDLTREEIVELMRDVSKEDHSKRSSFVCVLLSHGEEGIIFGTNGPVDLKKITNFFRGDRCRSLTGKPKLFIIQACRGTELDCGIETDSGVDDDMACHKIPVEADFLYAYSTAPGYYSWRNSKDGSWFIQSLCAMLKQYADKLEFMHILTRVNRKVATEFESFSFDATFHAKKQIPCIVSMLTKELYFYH

[2] = target: T2, Sentrin-specific protease 7 (Homo sapiens, UniProt Q9BQF6); assay type: functional;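 note: Luminescence-based dose-response confirmation of ultra-high-throughput screening hits, measuring inhibition of SENP7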
T2 sequence (Q9BQF6 whole entry): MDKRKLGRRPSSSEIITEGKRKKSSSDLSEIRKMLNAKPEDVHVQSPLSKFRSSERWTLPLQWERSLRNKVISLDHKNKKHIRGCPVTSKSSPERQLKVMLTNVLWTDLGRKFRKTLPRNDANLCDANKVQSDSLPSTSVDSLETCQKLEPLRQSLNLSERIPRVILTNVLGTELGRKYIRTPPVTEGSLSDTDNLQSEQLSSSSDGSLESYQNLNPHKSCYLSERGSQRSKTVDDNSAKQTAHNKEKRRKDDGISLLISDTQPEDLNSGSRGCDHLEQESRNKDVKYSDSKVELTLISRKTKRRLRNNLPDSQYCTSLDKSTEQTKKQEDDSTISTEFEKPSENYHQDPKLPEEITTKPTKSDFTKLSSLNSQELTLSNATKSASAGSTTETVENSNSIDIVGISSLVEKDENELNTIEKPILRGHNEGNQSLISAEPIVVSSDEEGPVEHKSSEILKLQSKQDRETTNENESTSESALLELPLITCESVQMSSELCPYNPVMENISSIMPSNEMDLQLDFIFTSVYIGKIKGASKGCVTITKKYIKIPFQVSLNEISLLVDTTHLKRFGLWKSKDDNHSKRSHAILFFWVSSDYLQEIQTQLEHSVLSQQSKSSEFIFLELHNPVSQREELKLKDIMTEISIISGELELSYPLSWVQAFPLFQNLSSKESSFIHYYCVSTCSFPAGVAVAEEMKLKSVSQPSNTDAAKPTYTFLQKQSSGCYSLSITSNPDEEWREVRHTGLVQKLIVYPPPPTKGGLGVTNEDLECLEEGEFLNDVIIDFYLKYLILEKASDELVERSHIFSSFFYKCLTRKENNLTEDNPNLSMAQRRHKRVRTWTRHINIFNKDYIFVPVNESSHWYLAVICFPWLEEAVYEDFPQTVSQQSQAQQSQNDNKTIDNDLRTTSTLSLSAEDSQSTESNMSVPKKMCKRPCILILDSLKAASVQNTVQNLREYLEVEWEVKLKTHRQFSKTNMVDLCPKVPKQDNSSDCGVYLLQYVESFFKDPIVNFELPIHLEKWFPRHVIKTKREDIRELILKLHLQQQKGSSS

[3] = target: T3, Sentrin-specific protease 6 (Homo sapiens, UniProt Q9GZR1); assay type: functional;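 note: Luminescence-based dose-response confirmatory assay of SENP6 inhibition, following up an ultra-high-throughput screen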
T3 sequence (Q9GZR1 whole entry): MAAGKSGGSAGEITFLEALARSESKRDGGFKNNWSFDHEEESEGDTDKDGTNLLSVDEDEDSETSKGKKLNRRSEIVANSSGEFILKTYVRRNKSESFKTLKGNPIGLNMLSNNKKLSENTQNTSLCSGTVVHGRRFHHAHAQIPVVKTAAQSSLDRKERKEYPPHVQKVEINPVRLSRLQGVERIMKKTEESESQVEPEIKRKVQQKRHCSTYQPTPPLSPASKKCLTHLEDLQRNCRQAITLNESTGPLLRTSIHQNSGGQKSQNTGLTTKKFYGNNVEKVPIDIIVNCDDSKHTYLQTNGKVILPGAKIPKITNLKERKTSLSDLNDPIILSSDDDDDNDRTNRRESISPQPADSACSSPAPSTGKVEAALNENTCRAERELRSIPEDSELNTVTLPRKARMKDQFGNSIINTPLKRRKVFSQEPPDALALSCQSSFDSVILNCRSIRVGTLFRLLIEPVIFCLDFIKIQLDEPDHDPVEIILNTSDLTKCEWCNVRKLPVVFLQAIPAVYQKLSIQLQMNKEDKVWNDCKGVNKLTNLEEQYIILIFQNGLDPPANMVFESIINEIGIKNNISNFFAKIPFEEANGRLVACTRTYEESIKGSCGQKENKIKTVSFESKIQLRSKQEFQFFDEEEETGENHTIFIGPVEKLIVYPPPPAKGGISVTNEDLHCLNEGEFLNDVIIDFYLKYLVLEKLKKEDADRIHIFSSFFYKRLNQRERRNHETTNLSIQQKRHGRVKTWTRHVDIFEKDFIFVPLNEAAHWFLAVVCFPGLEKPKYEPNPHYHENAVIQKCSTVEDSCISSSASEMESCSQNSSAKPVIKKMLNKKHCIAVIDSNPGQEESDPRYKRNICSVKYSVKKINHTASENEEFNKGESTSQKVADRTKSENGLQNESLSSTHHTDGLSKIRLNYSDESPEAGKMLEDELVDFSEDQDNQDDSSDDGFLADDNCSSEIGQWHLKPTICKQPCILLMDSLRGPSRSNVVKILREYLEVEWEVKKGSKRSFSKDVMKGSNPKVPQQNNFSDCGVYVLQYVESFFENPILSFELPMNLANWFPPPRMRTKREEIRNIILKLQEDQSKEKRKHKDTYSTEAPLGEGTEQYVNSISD

[4] = target: T4, Sentrin-specific protease 8 (Homo sapiens, UniProt Q96LD8); assay type: functional;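 note: luminescence read-out of SENP8 inhibition, dose-response confirmation following an ultra-high-throughput screen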
T4 sequence (Q96LD8 whole entry): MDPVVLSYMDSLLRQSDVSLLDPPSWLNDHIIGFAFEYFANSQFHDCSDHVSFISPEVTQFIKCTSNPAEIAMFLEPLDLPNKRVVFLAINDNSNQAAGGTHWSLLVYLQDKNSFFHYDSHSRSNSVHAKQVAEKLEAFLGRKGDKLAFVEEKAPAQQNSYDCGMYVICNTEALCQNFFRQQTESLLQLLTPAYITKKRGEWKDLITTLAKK

HeLa = assay: ATP-based viability loss in HeLa cells – cell-based, CellTiter-Glo luminescence, cherry-pick samples, cytotoxicity control for MITF activator project, dose response (AID 540259); assay type: functional; conditions: Homo sapiens
Beta-galactosidase = Beta-galactosidase (Escherichia coli, UniProt Q8VNN2); assay: PubChem AID 485352; assay type: functional
Sequence of Beta-galactosidase (Q8VNN2 whole entry): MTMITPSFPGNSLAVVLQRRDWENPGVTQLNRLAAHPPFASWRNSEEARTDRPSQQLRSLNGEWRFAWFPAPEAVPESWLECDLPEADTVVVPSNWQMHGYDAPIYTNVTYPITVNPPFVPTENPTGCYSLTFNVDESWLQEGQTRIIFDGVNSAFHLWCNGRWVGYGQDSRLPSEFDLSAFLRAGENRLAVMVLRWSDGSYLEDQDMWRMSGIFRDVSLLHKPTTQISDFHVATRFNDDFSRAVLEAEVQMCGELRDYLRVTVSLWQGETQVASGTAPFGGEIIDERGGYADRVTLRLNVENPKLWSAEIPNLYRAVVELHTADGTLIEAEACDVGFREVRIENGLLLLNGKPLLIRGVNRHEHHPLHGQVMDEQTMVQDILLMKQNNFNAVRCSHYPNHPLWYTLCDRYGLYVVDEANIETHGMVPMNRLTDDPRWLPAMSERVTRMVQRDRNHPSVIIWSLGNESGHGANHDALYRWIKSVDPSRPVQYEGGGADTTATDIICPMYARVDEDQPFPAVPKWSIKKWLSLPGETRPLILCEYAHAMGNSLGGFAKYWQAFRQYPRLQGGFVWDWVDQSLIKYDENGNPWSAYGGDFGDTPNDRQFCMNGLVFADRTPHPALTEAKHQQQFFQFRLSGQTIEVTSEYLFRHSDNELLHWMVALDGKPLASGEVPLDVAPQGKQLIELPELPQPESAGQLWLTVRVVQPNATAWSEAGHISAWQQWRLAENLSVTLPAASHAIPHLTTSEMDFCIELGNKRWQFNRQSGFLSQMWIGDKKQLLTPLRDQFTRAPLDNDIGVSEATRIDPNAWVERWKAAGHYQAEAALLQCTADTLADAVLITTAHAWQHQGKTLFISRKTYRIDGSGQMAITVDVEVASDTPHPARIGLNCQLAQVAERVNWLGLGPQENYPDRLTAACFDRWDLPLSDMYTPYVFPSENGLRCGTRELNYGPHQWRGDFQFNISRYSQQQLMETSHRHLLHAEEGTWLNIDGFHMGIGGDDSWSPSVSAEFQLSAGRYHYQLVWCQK

[5] = target: Type-1 angiotensin II receptor (Homo sapiens, UniProt P30556); assay: antagonism of angiotensin II type 1 receptor – cell-based, uHTS hits, selectivity assay for APJ receptor antagonist project, dose response (AID 463214); assay type: functional;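 note: antagonist potency against angiotensin II stimulated AT1 response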
Sequence of Type-1 angiotensin II receptor (P30556 whole entry): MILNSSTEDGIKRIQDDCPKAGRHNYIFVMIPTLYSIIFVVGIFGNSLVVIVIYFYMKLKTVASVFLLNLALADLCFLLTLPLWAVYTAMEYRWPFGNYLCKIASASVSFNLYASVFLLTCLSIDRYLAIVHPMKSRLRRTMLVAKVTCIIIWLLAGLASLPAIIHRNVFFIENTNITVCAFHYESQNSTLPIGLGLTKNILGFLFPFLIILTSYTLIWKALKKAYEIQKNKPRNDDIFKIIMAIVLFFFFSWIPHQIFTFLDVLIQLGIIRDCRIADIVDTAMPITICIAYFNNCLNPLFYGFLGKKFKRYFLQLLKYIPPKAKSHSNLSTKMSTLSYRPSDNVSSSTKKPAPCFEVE

Genome polyprotein = Genome polyprotein (dengue virus type 2, UniProt P29990); assay: flavivirus cap methylation enzyme inhibition – biochemical, confirmation dose response, primary screen (AID 588689); assay type: functional
Sequence of Genome polyprotein (P29990 2492-3391 limits assumed): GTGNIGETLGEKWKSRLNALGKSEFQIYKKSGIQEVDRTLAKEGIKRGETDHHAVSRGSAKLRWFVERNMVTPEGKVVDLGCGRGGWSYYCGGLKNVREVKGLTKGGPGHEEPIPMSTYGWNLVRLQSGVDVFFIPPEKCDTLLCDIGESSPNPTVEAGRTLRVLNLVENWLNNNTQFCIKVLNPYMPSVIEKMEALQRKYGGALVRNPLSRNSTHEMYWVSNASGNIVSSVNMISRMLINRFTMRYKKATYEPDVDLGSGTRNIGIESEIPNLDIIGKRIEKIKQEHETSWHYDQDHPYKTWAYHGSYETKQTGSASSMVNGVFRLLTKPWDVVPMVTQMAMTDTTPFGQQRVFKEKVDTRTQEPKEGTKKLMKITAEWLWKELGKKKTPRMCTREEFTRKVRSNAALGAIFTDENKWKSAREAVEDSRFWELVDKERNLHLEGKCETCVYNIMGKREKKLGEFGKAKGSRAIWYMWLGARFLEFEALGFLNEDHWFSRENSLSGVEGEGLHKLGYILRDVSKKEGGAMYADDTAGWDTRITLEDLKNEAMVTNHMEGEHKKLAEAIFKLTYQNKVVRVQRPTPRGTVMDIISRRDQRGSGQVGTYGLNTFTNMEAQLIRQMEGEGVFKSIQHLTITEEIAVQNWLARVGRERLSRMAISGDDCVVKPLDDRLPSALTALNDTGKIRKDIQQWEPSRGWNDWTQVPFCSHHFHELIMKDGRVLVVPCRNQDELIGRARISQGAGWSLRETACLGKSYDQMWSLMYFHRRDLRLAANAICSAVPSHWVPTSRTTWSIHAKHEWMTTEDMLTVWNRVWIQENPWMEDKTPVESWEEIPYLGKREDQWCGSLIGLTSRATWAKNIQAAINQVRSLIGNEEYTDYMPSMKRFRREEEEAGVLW

[6] = target: Beta-2 adrenergic receptor (Homo sapiens, UniProt P07550); assay: ADRB2 activation measured by internalization – cell-based, FAP fluorogen, flow cytometry, cherry pick 1, dose response (AID 588763); assay type: functional
Sequence of Beta-2 adrenergic receptor (P07550 whole entry): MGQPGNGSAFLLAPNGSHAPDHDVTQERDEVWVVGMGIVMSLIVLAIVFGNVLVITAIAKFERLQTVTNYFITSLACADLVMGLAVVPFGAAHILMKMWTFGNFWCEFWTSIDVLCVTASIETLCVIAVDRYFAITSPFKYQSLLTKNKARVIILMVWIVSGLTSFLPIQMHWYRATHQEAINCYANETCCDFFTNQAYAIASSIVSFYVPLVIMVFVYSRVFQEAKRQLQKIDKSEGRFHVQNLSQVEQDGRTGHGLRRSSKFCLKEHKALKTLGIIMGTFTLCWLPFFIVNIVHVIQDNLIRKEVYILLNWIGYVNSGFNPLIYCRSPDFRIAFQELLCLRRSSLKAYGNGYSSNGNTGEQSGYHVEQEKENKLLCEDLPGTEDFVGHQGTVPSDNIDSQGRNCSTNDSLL

[7] = target: T5, Heat shock factor protein 1 (Mus musculus, UniProt P38532); assay: decrease of HSF1-responsive luciferase luminescence – cell-based, NIH3T3, dose retest, confirmation (AID 2382); assay type: functional;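 note: NIH3T3 fibroblasts with HSF1-driven luciferase reporter stressed by proteasome inhibitor MG132; luminescence from HSF1-driven luciferase expression after 8 hours of MG132 stress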
T5 sequence (P38532 whole entry): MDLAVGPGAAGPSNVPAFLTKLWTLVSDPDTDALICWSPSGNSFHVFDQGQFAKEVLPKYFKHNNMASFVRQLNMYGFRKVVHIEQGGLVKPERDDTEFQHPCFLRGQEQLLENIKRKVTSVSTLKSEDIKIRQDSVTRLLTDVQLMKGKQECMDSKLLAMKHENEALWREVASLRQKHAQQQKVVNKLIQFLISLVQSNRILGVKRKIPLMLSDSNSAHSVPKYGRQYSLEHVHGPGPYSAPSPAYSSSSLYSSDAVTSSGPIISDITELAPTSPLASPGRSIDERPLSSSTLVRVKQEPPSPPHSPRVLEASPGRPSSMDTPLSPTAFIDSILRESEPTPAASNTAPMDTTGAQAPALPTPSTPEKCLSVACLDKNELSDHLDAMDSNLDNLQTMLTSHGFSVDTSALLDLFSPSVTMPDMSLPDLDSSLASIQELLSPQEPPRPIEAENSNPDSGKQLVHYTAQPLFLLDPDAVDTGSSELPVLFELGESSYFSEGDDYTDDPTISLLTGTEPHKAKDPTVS

Cysteine protease ATG4B = Cysteine protease ATG4B (Homo sapiens, UniProt Q9Y4P1); assay type: functional;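 note: Fluorescence-based dose-response confirmation assay measuring inhibition of ATG4B activity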
Sequence of Cysteine protease ATG4B (Q9Y4P1 whole entry): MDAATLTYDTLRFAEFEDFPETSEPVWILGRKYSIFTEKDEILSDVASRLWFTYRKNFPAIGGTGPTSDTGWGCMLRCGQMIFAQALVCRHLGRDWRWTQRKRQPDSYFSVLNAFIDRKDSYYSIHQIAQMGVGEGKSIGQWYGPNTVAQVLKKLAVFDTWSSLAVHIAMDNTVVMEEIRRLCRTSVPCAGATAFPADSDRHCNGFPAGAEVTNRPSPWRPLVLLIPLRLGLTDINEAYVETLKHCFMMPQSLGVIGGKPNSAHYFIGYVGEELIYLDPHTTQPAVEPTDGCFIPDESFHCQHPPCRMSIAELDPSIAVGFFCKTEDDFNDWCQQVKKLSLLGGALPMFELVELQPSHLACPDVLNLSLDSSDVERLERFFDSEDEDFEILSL

Phospholipase A2 = Phospholipase A2 (Homo sapiens, UniProt P04054); assay type: functional;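 note: confirmatory dose-response counterscreen on phospholipase A2, testing hits that came from an ultra-high-throughput screen for ATG4B inhibitors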
Sequence of Phospholipase A2 (P04054 whole entry): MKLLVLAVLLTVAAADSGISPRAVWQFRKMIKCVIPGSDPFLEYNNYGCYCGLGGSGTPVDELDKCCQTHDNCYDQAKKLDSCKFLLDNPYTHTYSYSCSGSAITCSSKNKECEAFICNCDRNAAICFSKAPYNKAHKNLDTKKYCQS

HEK293 = assay: cells; assay type: functional, cell-based; conditions: Homo sapiens
[8] = target: T6, Nuclear receptor subfamily 0 group B member 1 (Homo sapiens, UniProt P51843); assay: Luminescence-based cell-based high throughput dose response assay for inhibitors of the orphan nuclear receptor subfamily 0, group B, member 1 (DAX1; NR0B1). [Related pubchem assays (depositor defined):AID504766, AID504790]; assay type: functional
T6 sequence (P51843 whole entry): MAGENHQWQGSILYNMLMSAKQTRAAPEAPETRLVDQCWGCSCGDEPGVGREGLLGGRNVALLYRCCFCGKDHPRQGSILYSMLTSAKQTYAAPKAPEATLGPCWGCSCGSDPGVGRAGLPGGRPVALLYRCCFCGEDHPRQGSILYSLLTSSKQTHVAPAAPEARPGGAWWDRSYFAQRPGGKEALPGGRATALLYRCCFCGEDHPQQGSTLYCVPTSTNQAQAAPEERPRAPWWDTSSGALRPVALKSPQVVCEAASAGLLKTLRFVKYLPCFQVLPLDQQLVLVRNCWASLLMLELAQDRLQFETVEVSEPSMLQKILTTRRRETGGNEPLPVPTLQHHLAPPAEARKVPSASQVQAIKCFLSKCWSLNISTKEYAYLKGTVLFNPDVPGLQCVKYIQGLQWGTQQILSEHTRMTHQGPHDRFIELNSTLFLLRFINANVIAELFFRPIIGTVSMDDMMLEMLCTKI

Vero = assay: viability of Vero cells under compound – cytotoxicity control for flavivirus capping enzyme inhibitors (AID 588742); assay type: functional; conditions: Chlorocebus sabaeus
[9] = target: Voltage-dependent T-type calcium channel subunit alpha-1H (Homo sapiens, UniProt O95180); assay type: functional;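 note: channel activity triggered by adding a high calcium stimulation buffer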
[10] = Luminescence Cell-Based Dose Confirmation HTS to Identify Activators of 5'UTR Stem-Loop Driven Alpha-Synuclein mRNA Translation in H4 Neuroglioblastoma Cells. [Related pubchem assays: 1829 (Project Summary), 1814 (Primary HTS)]; assay type: functional
[11] = Luminescence Cell-Based Dose Response HTS to Identify Activators of Luciferase Translation or Activity in H4 […] Cells. [Related pubchem assays: 1829 (Project Summary), 1814 (Primary HTS)]; assay type: functional
cells [12] = assay type: functional, cell-based
H4 = assay: Luminescence Cell-Based Dose Response HTS to Identify Activators of 5'UTR Stem-Loop Driven Prion Protein mRNA Translation in H4 Neuroglioblastoma Cells. [Related pubchem assays: 1829 (Project Summary), 1814 (Primary HTS)]; assay type: functional; conditions: Homo sapiens
cells [13] = assay type: functional, cell-based; remark: listed apart in the source
[14] = target: T7, Oxysterols receptor LXR-beta (Homo sapiens, UniProt P55055); assay type: functional, cell-based;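 note: agonist activity at LXR measured by a cell-based luminescence readout across a dose range, run as a counterscreen for daf-12 agonists; HEK293 cells with Gal4-LXR fusion and GAL4-driven luciferase reporter; potency for activation of Gal4-LXR reporter so compounds are agonists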
T7 sequence (P55055 whole entry): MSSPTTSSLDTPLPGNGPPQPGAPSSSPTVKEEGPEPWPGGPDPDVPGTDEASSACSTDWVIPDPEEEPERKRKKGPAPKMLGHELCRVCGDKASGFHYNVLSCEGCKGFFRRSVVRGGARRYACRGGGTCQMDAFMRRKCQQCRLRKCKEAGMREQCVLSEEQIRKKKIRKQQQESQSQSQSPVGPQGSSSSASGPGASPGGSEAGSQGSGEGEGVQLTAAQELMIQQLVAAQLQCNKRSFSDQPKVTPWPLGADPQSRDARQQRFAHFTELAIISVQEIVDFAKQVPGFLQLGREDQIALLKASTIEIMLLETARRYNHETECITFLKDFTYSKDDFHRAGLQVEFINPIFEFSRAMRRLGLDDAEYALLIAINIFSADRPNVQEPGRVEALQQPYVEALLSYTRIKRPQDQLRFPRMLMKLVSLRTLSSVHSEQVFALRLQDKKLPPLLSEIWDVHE

SMILES: COc1cccc(NC(=O)c2csc3c2CCCC3)c1
- CC50 [1]: 32.5 µM (active)
- IC50 (Caspase-3): 19.2 µM (active)
- IC50 [2]: 5.17 µM (active)
- IC50 [3]: 15.5 µM (active)
- IC50 [4]: 18.9 µM (active)
- AC50 (HeLa): 49.7 µM (active)

SMILES: O=C1Nc2ccc(F)cc2C12Nc1ccccc1-c1nnc(SCc3ccccc3Cl)nc1O2 (stereo unspecified)
- EC50 (Beta-galactosidase): > 40 µM (inactive)
- IC50 [5]: 25.5 µM (not active)
- IC50 (Genome polyprotein): > 100 µM (active)

SMILES: Cc1cc(C(=O)OCC(=O)c2cccc([N+](=O)[O-])c2)c2ccccc2n1
- EC50 (Beta-galactosidase): > 40 µM (inactive)
- IC50 [5]: 17.4 µM (active)

SMILES: CN(CC(=O)N1CCN(c2ncccn2)CC1)S(=O)(=O)c1ccc(Cl)cc1
- EC50 [6]: 0.117 µM (active)

SMILES: CC(=O)Nc1ccc(-c2cn3c(n2)SCC3)cc1
- EC50 [7]: > 195 µM (not active)
- EC50 [6]: 10.9 µM (inactive)

SMILES: CCOC(=O)C1CCCN(C(=O)c2ccc3c(=O)n(Cc4ccccc4OC)c(=S)[nH]c3c2)C1 (stereo unspecified)
- IC50 (Cysteine protease ATG4B): 19.6 µM (active)
- IC50 (Phospholipase A2): 9.33 µM (active)

SMILES: Cc1ccc2[nH]c(/C(C#N)=C/c3ccccc3C(=O)O)nc2c1
- IC50 (HEK293): > 67.5 µM (inactive)
- IC50 [8]: > 67.5 µM (inactive)

SMILES: COC(=O)COc1ccc(C(C2C(=O)CC(C)(C)CC2=O)C2C(=O)CC(C)(C)CC2=O)cc1
- CC50 (Vero): > 40 µM (active)
- IC50 (Genome polyprotein): 48 µM (active)

SMILES: Cc1cccc(C)c1OCC(=O)Nc1cccc(NC(=O)c2ccco2)c1
- EC50 [9]: 6.78 µM (active)
- IC50 (Cysteine protease ATG4B): 15.9 µM (active)
- IC50 (Phospholipase A2): 8.37 µM (active)

SMILES: O=C(Nc1ncccc1O)c1ccc(C(=O)c2ccccc2)cc1
- EC50 [10]: 11.4 µM (active)
- EC50 [11]: 16.4 µM (active)
- EC50 (cells [12]): 72.7 µM (active)
- EC50 (H4): 23 µM (active)
- EC50 (cells [13]): 48.2 µM (active)
- IC50 (HEK293): 1.04 µM (active)
- IC50 [8]: > 67.6 µM (inactive)
- EC50 [14]: > 67.5 µM (inactive)
